Results published in patent US20240182481A1 (Tango Therapeutics, Inc., priority 2021, published 2024).
Where two headings read alike, the source gives them in different places.

Experiments:
monoubiquitinated PCNA = assay: AlphaLISA assay measuring monoubiquitinated PCNA in MDA-MB-436; format: cell-based; settings: Homo sapiens, read-out: Alpha LISA IC50
Text: Table 1 also indicates IC50 values for exemplary compounds in an AlphaLISA assay measuring monoubiquitinated PCNA in a BRCA1 mutant cell line (MDA-MB-436; column 7).

[1] = system: HCC1954 (BRCA1 WT) cell line; assay: Viability assay in BRCA1 WT cell line HCC1954; format: cell-based; settings: Homo sapiens, read-out: HCC 1954 IC50 rel IC50
Text: (§1) Table 1 also indicates IC50 values in a viability assay for a non-isogenic pair of BRCA1 mutant (column 5—MDA-MB-436) and BRCA1 WT (column 6—HCC1954) cell lines. These values indicate the effect of treatment with compound on cell survival.

USP1-UAF1 = USP1-UAF1 (Homo sapiens, UniProt O94782); assay: Ubiquitin Rhodamine assay for USP1-UAF1 activity; format: biochemical
Procedure: Certain compounds of the disclosure were assessed for USP1-UAF1 activity in a Ubiquitin Rhodamine assay as described in Example 135.

[2] = system: MDA-MB-436 (BRCA1 mutant) cell line; assay: Viability assay in BRCA1 mutant cell line MDA-MB-436; format: cell-based; settings: Homo sapiens, BRCA1 mutant MDA-MB-436, read-out: MDA-MB-436 rel IC50
Text: as §1

Sequence of USP1-UAF1 (O94782 whole entry): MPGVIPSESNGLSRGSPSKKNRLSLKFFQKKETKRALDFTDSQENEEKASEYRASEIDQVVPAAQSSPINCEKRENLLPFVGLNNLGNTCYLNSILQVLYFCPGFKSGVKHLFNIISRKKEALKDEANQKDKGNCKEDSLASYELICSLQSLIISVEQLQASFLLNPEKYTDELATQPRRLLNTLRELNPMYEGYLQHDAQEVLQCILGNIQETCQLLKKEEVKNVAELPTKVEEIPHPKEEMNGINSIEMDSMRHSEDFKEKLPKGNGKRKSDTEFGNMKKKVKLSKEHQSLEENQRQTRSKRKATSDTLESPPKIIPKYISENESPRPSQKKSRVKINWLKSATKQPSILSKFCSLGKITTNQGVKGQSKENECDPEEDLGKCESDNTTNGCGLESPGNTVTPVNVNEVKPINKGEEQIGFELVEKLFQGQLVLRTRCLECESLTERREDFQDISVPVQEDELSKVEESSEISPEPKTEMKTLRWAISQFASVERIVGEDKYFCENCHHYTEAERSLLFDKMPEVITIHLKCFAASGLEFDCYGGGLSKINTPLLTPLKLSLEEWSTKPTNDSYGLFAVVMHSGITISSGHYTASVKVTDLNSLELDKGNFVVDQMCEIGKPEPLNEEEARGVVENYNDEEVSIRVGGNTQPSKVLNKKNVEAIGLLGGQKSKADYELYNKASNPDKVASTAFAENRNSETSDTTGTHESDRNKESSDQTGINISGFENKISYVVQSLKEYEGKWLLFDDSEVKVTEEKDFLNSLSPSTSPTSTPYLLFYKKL
Sequence of USP1-UAF1 (Q8TAF3 whole entry partner): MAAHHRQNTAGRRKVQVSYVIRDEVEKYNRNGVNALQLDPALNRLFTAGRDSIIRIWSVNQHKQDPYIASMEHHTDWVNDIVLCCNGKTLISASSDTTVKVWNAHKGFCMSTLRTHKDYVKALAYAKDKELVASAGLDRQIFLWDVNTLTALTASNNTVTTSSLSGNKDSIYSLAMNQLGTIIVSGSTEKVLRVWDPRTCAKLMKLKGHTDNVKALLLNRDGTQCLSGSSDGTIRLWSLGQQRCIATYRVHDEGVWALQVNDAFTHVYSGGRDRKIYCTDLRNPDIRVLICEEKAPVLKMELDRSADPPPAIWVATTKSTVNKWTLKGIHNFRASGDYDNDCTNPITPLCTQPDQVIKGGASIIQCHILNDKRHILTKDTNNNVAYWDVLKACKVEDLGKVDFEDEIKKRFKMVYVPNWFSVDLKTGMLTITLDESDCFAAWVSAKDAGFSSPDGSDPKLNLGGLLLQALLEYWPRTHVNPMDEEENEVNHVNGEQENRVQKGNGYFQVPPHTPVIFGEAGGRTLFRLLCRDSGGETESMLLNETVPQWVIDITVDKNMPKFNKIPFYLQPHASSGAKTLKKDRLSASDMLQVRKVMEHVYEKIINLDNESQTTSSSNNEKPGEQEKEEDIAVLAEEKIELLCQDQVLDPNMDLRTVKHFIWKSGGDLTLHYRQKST

SMILES | IC50 (monoubiquitinated PCNA) [nM] | IC50 [1] [nM] | IC50 (USP1-UAF1) [nM] | IC50 ([2]; MDA-MB-436, viability) [nM] | IC50 ([2]; viability) [nM]
COc1ncnc(C2CC2)c1-c1ncc2[nH]c(C)c(Cc3ccc(-c4nc(C(F)(F)F)cn4C)cc3)c2n1 [Compound 188] | < 100 | ≥ 10000 | < 30 | < 100 | 
CNc1ncnc(C2CC2)c1-c1ncc2[nH]cc(Cc3ccc(-c4nc(C(F)(F)F)cn4C)cc3)c2n1 [Compound 175] | 100 to 250 | ≥ 10000 | 100 to 10000 | 100 to 250 | 
COc1nccc(C)c1-c1ncc2[nH]nc(Cc3ccc(-c4nc(C(F)(F)F)cn4C)cc3)c2n1 [Compound 191] | 250 to 10000 | ≥ 10000 | 100 to 10000 | 100 to 250 | 
CCOc1ncnc(C2CC2)c1-c1ncc2[nH]nc(Cc3ccc(-c4nc(C(F)(F)F)cn4C)cc3)c2n1 [Compound 126, 5-(4-cyclopropyl-6-ethoxy-pyrimidin-5-yl)-3-[[4-[1-methyl-4-(trifluoromethyl)imidazol-2-yl]phenyl]methyl]-1H-pyrazolo[4,3-d]pyrimidine] | < 100 | 250 to 10000 | < 30 | < 100 | 
CC(C)c1ccccc1-c1ncc2[nH]cc(Cc3ccc(-c4nc(C(F)(F)F)cn4C)cc3)c2n1 [Compound 10, 2-(2-isopropylphenyl)-7-[[4-[1-methyl-4-(trifluoromethyl)imidazol-2-yl]phenyl]methyl]-5H-pyrrolo[3,2-d]pyrimidine] | < 100 | ≥ 10000 | < 30 | < 100 | 
COc1ncnc(C2CC2)c1-c1ncc2[nH]c(CN)c(Cc3ccc(-c4nc(C(F)(F)F)cn4C)cc3)c2n1 [Compound 119] | 250 to 10000 | 250 to 10000 | 100 to 10000 | 100 to 250 | 
CC(C)c1ccccc1-c1ncc2[nH]cc([C@H](C)c3ccc(-c4nc(C(F)(F)F)cn4C)cc3)c2n1 (single isomer, unassigned) [Compound 64] | < 100 | 250 to 10000 | < 30 | < 100 | 
COc1ncnc(C2CC2)c1-c1ncc2nn(C(C)=O)c(Cc3ccc(-c4nc(C(F)(F)F)cn4C)cc3)c2n1 [Compound 101, 1-(5-(4-cyclopropyl-6-methoxypyrimidin-5-yl)-3-(4-(1-methyl-4-(trifluoromethyl)-1H-imidazol-2-yl)benzyl)-2H-pyrazolo[4,3-d]pyrimidin-2-yl)ethan-1-one] | < 100 | ≥ 10000 | 30 to 100 |  | < 100
COc1ncnc(C2CC2)c1-c1ncc2c(n1)c(Cc1ccc(-c3nc(C(F)(F)F)cn3C)cc1)cn2C(C)=O [Compound 93, 1-[2-(4-cyclopropyl-6-methoxy-pyrimidin-5-yl)-7-[[4-[1-methyl-4-(trifluoromethyl)imidazol-2-yl]phenyl]methyl]pyrrolo[3,2-d]pyrimidin-5-yl]ethanone] | < 100 | ≥ 10000 | 30 to 100 |  | < 100
COCc1[nH]c2cnc(-c3c(OC)ncnc3C3CC3)nc2c1Cc1ccc(-c2nc(C(F)(F)F)cn2C)cc1 [Compound 94, 2-(4-cyclopropyl-6-methoxy-pyrimidin-5-yl)-6-(methoxymethyl)-7-[[4-[1-methyl-4-(trifluoromethyl)imidazol-2-yl]phenyl]methyl]-5H-pyrrolo[3,2-d]pyrimidine] | < 100 | ≥ 10000 | < 30 | < 100 | 
COc1nc(C)nc(C2CC2)c1-c1ncc2[nH]nc(Cc3ccc(-c4nc(C(F)(F)F)cn4C)cc3)c2n1 [Compound 184, 5-(4-cyclopropyl-6-methoxy-2-methylpyrimidin-5-yl)-3-(4-(1-methyl-4-(trifluoromethyl)-1H-imidazol-2-yl)benzyl)-1H-pyrazolo[4,3-d]pyrimidine] | < 100 | 250 to 10000 | 30 to 100 | < 100 | 
CC(C)c1ccccc1-c1ncc2[nH]cc(C(O)c3ccc(-c4nc(C(F)(F)F)cn4C)cc3)c2n1 (stereo not shown) [Compound 1, [2-(2-isopropylphenyl)-5H-pyrrolo[3,2-d]pyrimidin-7-yl]-[4-[1-methyl-4-(trifluoromethyl)imidazol-2-yl]phenyl]methanol] | < 100 | ≥ 10000 | 30 to 100 | < 100 | 
CNCc1[nH]c2cnc(-c3cccnc3C3CC3)nc2c1Cc1ccc(-c2nc(C(F)(F)F)cn2C)cc1 [Compound 178, 1-[2-(2-cyclopropyl-3-pyridyl)-7-[[4-[1-methyl-4-(trifluoromethyl)imidazol-2-yl]phenyl]methyl]-5H-pyrrolo[3,2-d]pyrimidin-6-yl]-N-methyl-methanamine] | < 100 | 250 to 10000 | 30 to 100 | < 100 | 
CCn1cc(C(F)(F)F)nc1-c1ccc(C(O)c2c[nH]c3cnc(-c4c(OC)ncnc4C4CC4)nc23)cc1 (stereo not shown) [Compound 33] | 250 to 10000 | ≥ 10000 | 100 to 10000 | 250 to 10000 | 
COc1ncnc(C2CC2)c1-c1ncc2[nH]cc(Cc3ccc(-c4nc(C(F)(F)F)cn4C)c(F)c3)c2n1 [Compound 153, 2-(4-cyclopropyl-6-methoxy-pyrimidin-5-yl)-7-[[3-fluoro-4-[1-methyl-4-(trifluoromethyl)imidazol-2-yl]phenyl]methyl]-5H-pyrrolo[3,2-d]pyrimidine] | < 100 | ≥ 10000 | < 30 | < 100 | 
COc1ncnc(C2CC2)c1-c1ncc2[nH]nc(Cc3ccc(-c4nc(C(F)(F)F)cn4C4COC4)cc3)c2n1 [Compound 133, 5-(4-cyclopropyl-6-methoxy-pyrimidin-5-yl)-3-[[4-[1-(oxetan-3-yl)-4-(trifluoromethyl)imidazol-2-yl]phenyl]methyl]-1H-pyrazolo[4,3-d]pyrimidine] | 100 to 250 | ≥ 10000 | 30 to 100 | < 100 | 
